Assay [1] has as its target T1, Tyrosine-protein phosphatase non-receptor type 11 (Homo sapiens) (UniProt Q06124).
T1 sequence (whole entry): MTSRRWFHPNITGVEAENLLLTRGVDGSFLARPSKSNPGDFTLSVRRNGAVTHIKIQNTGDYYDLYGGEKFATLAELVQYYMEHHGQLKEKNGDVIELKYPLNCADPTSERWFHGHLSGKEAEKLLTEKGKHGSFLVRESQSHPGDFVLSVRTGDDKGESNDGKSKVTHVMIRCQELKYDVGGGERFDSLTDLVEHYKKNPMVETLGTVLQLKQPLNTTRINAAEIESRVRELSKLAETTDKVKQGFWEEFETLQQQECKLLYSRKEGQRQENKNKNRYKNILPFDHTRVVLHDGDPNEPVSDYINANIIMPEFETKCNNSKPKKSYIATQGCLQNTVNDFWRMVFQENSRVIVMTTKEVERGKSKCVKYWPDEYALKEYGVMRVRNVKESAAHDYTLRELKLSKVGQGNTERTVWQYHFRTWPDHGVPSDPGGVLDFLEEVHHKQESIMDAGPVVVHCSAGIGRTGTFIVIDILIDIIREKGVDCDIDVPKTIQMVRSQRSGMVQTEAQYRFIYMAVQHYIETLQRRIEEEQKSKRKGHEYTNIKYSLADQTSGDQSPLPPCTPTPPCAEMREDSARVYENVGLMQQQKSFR
Put plainly: Inhibition of human recombinant SHP2 expressed in Escherichia coli assessed as inhibition of phosphatase activity by measuring p-nitrophenyl phosphate at 6.7 microg/ml measured after 60 mins. The following applies: dose 6.7 µg/ml.

In assay [2] the target is T2, M-phase inducer phosphatase 2 (Homo sapiens) (UniProt P30305).
T2 sequence (whole entry): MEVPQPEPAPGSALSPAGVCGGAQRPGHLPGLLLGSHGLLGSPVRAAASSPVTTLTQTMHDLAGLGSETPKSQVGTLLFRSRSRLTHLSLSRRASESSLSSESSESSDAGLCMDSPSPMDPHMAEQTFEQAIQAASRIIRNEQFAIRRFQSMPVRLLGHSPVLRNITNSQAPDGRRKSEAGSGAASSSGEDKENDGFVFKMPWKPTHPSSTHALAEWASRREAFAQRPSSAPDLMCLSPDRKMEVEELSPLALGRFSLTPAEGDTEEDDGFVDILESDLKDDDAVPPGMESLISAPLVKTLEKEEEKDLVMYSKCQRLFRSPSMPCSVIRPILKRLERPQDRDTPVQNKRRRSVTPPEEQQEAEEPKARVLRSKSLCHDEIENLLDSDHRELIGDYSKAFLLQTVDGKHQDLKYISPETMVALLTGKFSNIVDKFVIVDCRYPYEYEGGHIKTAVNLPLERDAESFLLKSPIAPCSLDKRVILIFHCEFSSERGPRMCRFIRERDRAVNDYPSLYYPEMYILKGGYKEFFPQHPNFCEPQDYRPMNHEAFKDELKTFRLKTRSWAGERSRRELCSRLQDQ
Put plainly: Inhibition of human recombinant CDC25B expressed in Escherichia coli assessed as inhibition of phosphatase activity by measuring p-nitrophenyl phosphate at 6.7 microg/ml measured after 60 mins. The following applies: dose 6.7 µg/ml.

Assay [3] in a line: Reduction in intracellular triglyceride accumulation in mouse 3T3-L1 cells measured after 3 days. It is filed as functional, cell-based. The following applies: 3T3-L1, 72 h.
Assay [4] addresses Tyrosine-protein phosphatase non-receptor type 6 (Homo sapiens) (UniProt P29350). Kind of assay: Inhibition of human recombinant SHP1 expressed in Escherichia coli assessed as inhibition of phosphatase activity by measuring p-nitrophenyl phosphate at 6.7 microg/ml measured after 60 mins. To be noted: dose 6.7 µg/ml.
In another assay the test system is 3T3-L1. Put plainly: (§1) Reduction in intracellular triglyceride accumulation in mouse 3T3-L1 cells at 10 uM measured after 3 days. It is filed as functional. The following applies: time 3.0 day.
Assay [5] addresses T3, M-phase inducer phosphatase 2 (Homo sapiens, UniProt P30305).
T3 sequence (P30305 whole entry): T2 sequence (whole entry)
Put plainly: Inhibition of human recombinant CDC25B expressed in Escherichia coli assessed as inhibition of phosphatase activity by measuring p-nitrophenyl phosphate measured after 60 mins.

Assay [6] is described as follows: as §1. It is filed as functional. Set-up: scale not given: the % may be the effect or the level left. The following applies: time 3 day.

13 compounds from ChEMBL document CHEMBL4828768, “Talaromynoids A-I, Highly Oxygenated Meroterpenoids from the Marine-Derived Fungus Talaromyces purpureogenus SCSIO 41517 and Their Lipid Accumulation Inhibitory Activities” (J Nat Prod, 2021) can be followed below.

pIC50: −log10 of the molar value. Activity calls are given as the source filed them. The calls are words filed in the database; no cut-off is given here. A value given as a limit tells only on which side of the number the result lay.

Tyrosine-protein phosphatase non-receptor type 6 (Homo sapiens), sequence (P29350 whole entry): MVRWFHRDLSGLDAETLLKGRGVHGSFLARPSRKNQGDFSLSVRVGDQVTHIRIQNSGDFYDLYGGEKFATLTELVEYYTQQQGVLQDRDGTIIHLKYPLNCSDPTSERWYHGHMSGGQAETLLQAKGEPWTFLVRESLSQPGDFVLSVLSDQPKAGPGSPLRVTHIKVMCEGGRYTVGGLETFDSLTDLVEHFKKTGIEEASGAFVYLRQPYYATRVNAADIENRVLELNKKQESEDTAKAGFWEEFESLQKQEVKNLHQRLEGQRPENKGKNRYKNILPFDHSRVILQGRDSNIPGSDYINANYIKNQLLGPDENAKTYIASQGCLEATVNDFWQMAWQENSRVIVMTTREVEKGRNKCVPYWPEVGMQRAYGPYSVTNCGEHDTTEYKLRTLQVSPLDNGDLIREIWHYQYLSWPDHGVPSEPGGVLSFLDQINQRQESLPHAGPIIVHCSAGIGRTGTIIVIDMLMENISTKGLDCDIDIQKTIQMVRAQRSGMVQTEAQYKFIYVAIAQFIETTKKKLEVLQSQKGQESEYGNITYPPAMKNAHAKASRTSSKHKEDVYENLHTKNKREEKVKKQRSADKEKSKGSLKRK

The term inhibition denotes the drop in the measured response relative to a control, in per cent. A word on the pIC50: it is the negative decadic logarithm of the IC50, by convention in mol/L. As to `CC1=C2CC(=O)OC(C)(C)[C@]23O[C@@H]3[C@@H]2O[C@@]3(O)[C@@H](C)O[C@H]4OC(=O)[C@]5(C)C[C@H]1[C@]2(C)[C@@]31C(=O)O[C@@]415`, the inhibition in assay [1], in assay [2] and in assay [4] was under 60% in each case. For the same compound, the pIC50 in assay [3] is 4.43. The outcome in the assay with 3T3-L1 was Active.
`COC(=O)[C@@]12[C@@]3(C)[C@@H]4C=C5C(=CC(=O)OC5(C)C)[C@@](C)(O)[C@@H]3C[C@@]3(C)C(=O)O[C@@H](O[C@@H](C)[C@@]1(O)O4)[C@@]23O`: the inhibition in assay [1] and in assay [4] was under 60% each time. Further, in assay [2], the inhibition entry is “Active”. Also, the pIC50 in assay [5] was 4.89.
Take `COC(=O)[C@]12C(=O)[C@@](C)(O)C(=O)[C@](C)(C[C@H]3C(C)=C4CC(=O)OC(C)(C)C4=CC[C@@]31C)[C@]21CO1`: the inhibition in assay [1], in assay [2] and in assay [4] was under 60% each time. In addition, the negative logarithm of the IC50 (pIC50) in assay [3] was 4.37. In the assay with 3T3-L1, the outcome was Active.
`COC(=O)CC1=C(C)[C@H]2C[C@]3(C)C(=O)O[C@@H]4O[C@H](C)[C@]5(O)O[C@@H]([C@H]6O[C@@]16C(C)(C)O)[C@@]2(C)[C@@]51C(=O)O[C@@]413`: the inhibition in assay [1], in assay [2] and in assay [4] was under 60% throughout. The compound further gave a pIC50 in assay [3] of 4.54. In the assay with 3T3-L1, the outcome was Active.
Turning to `CC1=C2CC(=O)OC(C)(C)C2=CC[C@@]2(C)[C@H]1C[C@@](C)(C(=O)O)[C@]13COC(=O)[C@@]12C(=O)[C@H](C)O3`, the inhibition in assay [1], in assay [2] and in assay [4] was under 60% throughout. This compound also yielded an Activity in assay [6] of under 60%.
In the case of `COC(=O)[C@]12[C@@H]3[C@@H](O)O[C@@H](C)[C@@]14OC(=O)[C@]3(C)C[C@H]1C(C)=C3CC(=O)OC(C)(C)[C@@]35O[C@H]5[C@H](O4)[C@@]12C`, the inhibition in assay [1], in assay [2] and in assay [4] was under 60% each time. For the same compound, in assay [3], the negative logarithm of the IC50 (pIC50) was 4.68. The result with 3T3-L1 was Active.
For the compound `COC(=O)[C@]12C3=C(C)O[C@@H]4OC(=O)[C@](C)(C[C@H]5C(C)=C6CC(=O)O[C@@]6(C(C)(C)O)[C@@H](C[C@@]51C)O3)[C@@H]42`, the inhibition in assay [1], in assay [2] and in assay [4] was under 60% in each case.
Regarding `COC(=O)[C@]12[C@@H]3[C@H]4OC(=O)[C@]3(C)C[C@H]3C(C)=C5CC(=O)OC(C)(C)[C@@]56O[C@H]6[C@H](O[C@]1(O)[C@H](C)O4)[C@@]32C`, the inhibition in assay [1], in assay [2] and in assay [4] was under 60% throughout.
For the compound `COC(=O)CC1=C(C)[C@@H]2C[C@@]3(C)C(=O)O[C@H]4O[C@@H](C)[C@@]5(O)O[C@@H]([C@@H]6O[C@]16C(C)(C)O)[C@]2(C)[C@@]5(C(=O)OC)[C@H]43`, the inhibition in assay [1], in assay [2] and in assay [4] was under 60% in each case.
As to `COC(=O)[C@]12C3=C(C)O[C@@H]4OC(=O)[C@](C)(C[C@H]5C(C)=C6CC(=O)O[C@@]6(C(C)(C)O)[C@H](O3)[C@H](O)[C@@]51C)[C@@H]42`, the inhibition in assay [1], in assay [2] and in assay [4] was under 60% throughout.
For the compound `COC(=O)CC1=C(C)[C@@H]2C[C@@]3(C)C(=O)O[C@H]4O[C@@H](C)[C@@]5(O)O[C@@H]([C@@H]6O[C@]16C(C)(C)O)[C@]2(C)[C@@]5(C(=O)OC)[C@]43O`, the inhibition in assay [1], in assay [2] and in assay [4] was under 60% each time.
Consider `COC(=O)[C@]12[C@@H]3[C@H]4OC(=O)[C@]3(C)CC3=C(C)C5=C(C[C@H](O[C@]1(O)[C@H](C)O4)[C@@]32C)C(C)(C)OC(=O)C5`, for which the inhibition in assay [1], in assay [2] and in assay [4] was under 60% throughout.
Turning to `COC(=O)[C@]12C(=O)[C@H](C)O[C@@H]3OC(=O)[C@](C)(C[C@H]4C(C)=C5CC(=O)OC(C)(C)C5=CC[C@@]41C)[C@@H]32` [BERKELEYACETAL A], the inhibition in assay [1], in assay [2] and in assay [4] was under 60% throughout. Besides, the Activity in assay [6] is given as under 60%.
